The results in this text go back to ChEMBL document CHEMBL4699404, “Arylsulfonyl histamine derivatives as powerful and selective alpha-glucosidase inhibitors” (RSC Med Chem, 2020).

Data set [1] deals with Saccharomyces cerevisiae. The data set can be described thus: Inhibition of Saccharomyces cerevisiae alpha-glucosidase using p-nitrophenyl-alpha-o-D-glucopyranoside as substrate at 100 uM measured for 10 mins by microplate assay relative to control.
A short description of data set [2]: Inhibition of almonds beta-glucosidase using p-nitrophenyl-beta-o-D-glucopyranoside as substrate measured for 10 mins. The arrangement: species or system Prunus dulcis.
A short description of data set [3]: Toxicity against C57BL/6 mouse assessed as changes in food consumption at 22.5 mg/kg, po administered via gavage measured for 24 hrs. It is filed as organism-based. As to conditions: in vivo.
Data set [4] addresses Xanthine dehydrogenase/oxidase (Bos taurus, UniProt P80457). The data set can be described thus: Inhibition of bovine milk xanthine oxidase assessed as reduction in uric acid formation at 3 uM using xanthine as substrate measured for 20 mins by microplate assay. To be noted: cattle.
Data set [5] in a line: Toxicity against C57BL/6 mouse assessed as general body position changes at 22.5 mg/kg, po administered via gavage. The format is organism-based. As to conditions: in vivo.
The target of data set [6] is Mushroom tyrosinase (Agaricus bisporus) (UniProt O42713+Q00024+C7FF04+C7FF05). In words: Inhibition of mushroom tyrosinase assessed as reduction in dopachrome formation at 40 uM using L-tyrosine as substrate measured for 30 mins by microplate assay.
A short description of data set [7]: Inhibition of porcine pancreatic alpha-amylase assessed as reduction in conversion of starch to glucose using starch as substrate at 200 uM incubated for 15 mins by starch-iodine method. To be noted: pig, 0.25 h. Also noted: species or system Sus scrofa.
The target of data set [8] is Acetylcholinesterase (Electrophorus electricus) (UniProt O42275). The data set can be described thus: Inhibition of electric eel AChE using acetylthiocholine iodide as substrate at 1.5 uM measured for 15 mins by Ellman's method relative to control.
A short description of data set [9]: Toxicity against C57BL/6 mouse assessed as changes in water consumption at 22.5 mg/kg, po administered via gavage measured for 24 hrs. To be noted: in vivo. The format is organism-based.
The test system of data set [10] is Saccharomyces cerevisiae. In words: Inhibition of Saccharomyces cerevisiae alpha-glucosidase using p-nitrophenyl-alpha-o-D-glucopyranoside as substrate at 122 uM measured for 10 mins by microplate assay relative to control.
The test system of a further data set is Kluyveromyces lactis. The data set can be described thus: Inhibition of Kluyveromyces lactis beta-galactosidase using o-nitrophenyl-beta-o-D-galactopyranoside as substrate at 100 to 2500 uM measured for 10 mins. To be noted: dose microM 100-2500, time 10.0 min.
For data set [11], the system named is Mus musculus. In words: Hypoglycemic activity in C57BL/6 mouse assessed as reduction in postprandial blood glucose level at 22.5 mg/kg, po administered via gavage measured after 15 to 90 mins by glucometric analysis. The format is functional, organism-based. As to conditions: time min 15-90.
Another data set has as its system Prunus dulcis. In words: Inhibition of almonds beta-glucosidase using p-nitrophenyl-beta-o-D-glucopyranoside as substrate at 65 uM measured for 10 mins.
The subject of data set [12] is Saccharomyces cerevisiae. The data set can be described thus: Potency index, ratio of acarbose Ki to test compound Ki for competitive inhibition of Saccharomyces cerevisiae alpha-glucosidase using varying levels of p-nitrophenyl-alpha-D-glucopyranoside as substrate by Lineweaver-Burk plot analysis.
A short description of data set [13]: Toxicity against C57BL/6 mouse assessed as locomotory changes at 22.5 mg/kg, po administered via gavage. It is filed as organism-based. To be noted: in vivo.
The test system of data set [14] is Mus musculus. The data set can be described thus: Hypoglycemic activity in C57BL/6 mouse assessed as reduction in sucrose-induced postprandial blood glucose level at 22.5 mg/kg, po administered via gavage and measured after 15 to 90 mins by oral sucrose loading test. To be noted: time min 15-90. The format is functional, organism-based.
Data set [15] is described as follows: Toxicity against C57BL/6 mouse assessed as behavioural changes at 22.5 mg/kg, po administered via gavage. It is filed as organism-based. As to conditions: in vivo.
The test system of data set [16] is Saccharomyces cerevisiae. In words: Reversible inhibition of Saccharomyces cerevisiae alpha-glucosidase assessed as recovery of enzyme activity preincubated with enzyme for 30 mins followed by 100-fold dilution and challenge with substrate by jump dilution experiment based microplate assay. Also noted: scale not given: the % may be the effect or the level left.

Data set [17] in a line: Inhibition of Kluyveromyces lactis beta-galactosidase using o-nitrophenyl-beta-o-D-galactopyranoside as substrate measured for 10 mins.

Calls of active or inactive are those of the source. No cut-off for these calls is given here.

Chain of Acetylcholinesterase (Electrophorus electricus) (O42275 24-633 limits assumed): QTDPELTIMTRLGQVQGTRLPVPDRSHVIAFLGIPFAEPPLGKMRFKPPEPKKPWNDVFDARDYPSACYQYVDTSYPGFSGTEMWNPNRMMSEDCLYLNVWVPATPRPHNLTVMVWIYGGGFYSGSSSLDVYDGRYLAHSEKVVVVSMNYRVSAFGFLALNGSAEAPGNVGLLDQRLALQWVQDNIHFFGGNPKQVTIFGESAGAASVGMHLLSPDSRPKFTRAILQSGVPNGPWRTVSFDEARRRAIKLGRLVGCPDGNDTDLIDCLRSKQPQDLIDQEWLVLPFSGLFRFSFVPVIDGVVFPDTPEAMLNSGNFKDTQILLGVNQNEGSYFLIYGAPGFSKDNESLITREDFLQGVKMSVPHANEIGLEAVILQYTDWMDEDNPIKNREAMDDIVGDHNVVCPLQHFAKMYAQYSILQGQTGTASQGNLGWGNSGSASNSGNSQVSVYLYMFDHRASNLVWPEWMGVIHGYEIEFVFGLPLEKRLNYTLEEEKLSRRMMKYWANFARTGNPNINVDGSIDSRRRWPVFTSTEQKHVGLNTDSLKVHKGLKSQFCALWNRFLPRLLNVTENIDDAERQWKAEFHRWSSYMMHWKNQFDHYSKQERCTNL
Chain of Xanthine dehydrogenase/oxidase (P80457 whole entry): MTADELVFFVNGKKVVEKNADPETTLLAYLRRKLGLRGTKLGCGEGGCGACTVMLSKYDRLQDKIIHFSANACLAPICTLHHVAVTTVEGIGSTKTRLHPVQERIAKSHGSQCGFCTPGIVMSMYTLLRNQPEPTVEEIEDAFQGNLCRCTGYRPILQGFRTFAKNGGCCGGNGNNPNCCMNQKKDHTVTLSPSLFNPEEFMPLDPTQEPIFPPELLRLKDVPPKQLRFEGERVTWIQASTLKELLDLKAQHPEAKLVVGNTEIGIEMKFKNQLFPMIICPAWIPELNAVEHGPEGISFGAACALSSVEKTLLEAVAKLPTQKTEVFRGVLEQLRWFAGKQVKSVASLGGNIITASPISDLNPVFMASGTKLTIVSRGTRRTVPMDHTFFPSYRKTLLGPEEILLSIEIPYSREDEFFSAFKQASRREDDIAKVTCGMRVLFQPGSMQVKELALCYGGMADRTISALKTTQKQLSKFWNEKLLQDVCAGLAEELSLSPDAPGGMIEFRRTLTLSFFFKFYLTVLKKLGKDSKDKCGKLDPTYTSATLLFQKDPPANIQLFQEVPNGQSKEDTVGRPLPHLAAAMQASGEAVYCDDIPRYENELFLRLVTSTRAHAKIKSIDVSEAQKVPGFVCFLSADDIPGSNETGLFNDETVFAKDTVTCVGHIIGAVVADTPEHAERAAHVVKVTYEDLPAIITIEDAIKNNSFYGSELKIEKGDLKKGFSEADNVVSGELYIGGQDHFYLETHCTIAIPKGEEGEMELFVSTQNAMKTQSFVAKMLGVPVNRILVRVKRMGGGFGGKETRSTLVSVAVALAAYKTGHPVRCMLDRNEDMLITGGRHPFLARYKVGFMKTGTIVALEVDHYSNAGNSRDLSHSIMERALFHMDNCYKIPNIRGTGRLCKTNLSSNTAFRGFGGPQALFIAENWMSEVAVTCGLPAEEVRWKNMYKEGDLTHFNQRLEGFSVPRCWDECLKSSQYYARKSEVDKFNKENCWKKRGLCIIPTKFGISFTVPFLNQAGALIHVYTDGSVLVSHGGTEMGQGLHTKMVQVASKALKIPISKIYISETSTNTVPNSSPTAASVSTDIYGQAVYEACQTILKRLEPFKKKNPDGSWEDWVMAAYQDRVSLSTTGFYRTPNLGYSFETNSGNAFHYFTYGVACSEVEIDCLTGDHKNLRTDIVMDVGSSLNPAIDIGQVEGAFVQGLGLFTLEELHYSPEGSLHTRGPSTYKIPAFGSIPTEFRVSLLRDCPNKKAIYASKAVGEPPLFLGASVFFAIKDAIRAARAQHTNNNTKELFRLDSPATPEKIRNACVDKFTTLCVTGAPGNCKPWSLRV

On to `O=S(=O)(NCCc1cn(S(=O)(=O)c2cc(F)c(F)c(F)c2)cn1)c1cc(F)c(F)c(F)c1`, for which the inhibition – broadly, the percentage by which the read-out fell short of the control – in the data set with Saccharomyces cerevisiae [1] was more than 50%.
The compound `O=S(=O)(NCCc1c[nH]cn1)c1cc(F)c(F)c(F)c1` showed an inhibition in the data set with Saccharomyces cerevisiae [1] of less than 50%.
In turn, `COc1ccc(S(=O)(=O)NCCc2cn(S(=O)(=O)c3ccc(OC)c(F)c3)cn2)cc1F` gave an inhibition in the data set on Saccharomyces cerevisiae [1] of more than 50%.
Regarding `Cc1ccc(F)c(S(=O)(=O)NCCc2c[nH]cn2)c1`, the inhibition in the data set with Saccharomyces cerevisiae [1] is less than 50%.
On to `Cc1ccc(S(=O)(=O)NCCc2c[nH]cn2)cc1`, for which, in the data set on Saccharomyces cerevisiae [1], the inhibition was less than 50%.
On to `Cc1ccc(S(=O)(=O)NCCc2cn(S(=O)(=O)c3ccc(C)cc3)cn2)cc1`, for which the inhibition with Saccharomyces cerevisiae [1] is more than 50%.
On to `OC[C@H]1NC[C@H](O)[C@@H](O)[C@@H]1O` [DUVOGLUSTAT], for which half-maximal inhibition in data set [2] (IC50) was put at 65.2 µM.
On to `O=S(=O)(NCCc1cn(S(=O)(=O)c2ccc(C(F)(F)F)cc2)cn1)c1ccc(C(F)(F)F)cc1`, for which the Activity entry is “Non-Toxic” in data set [3]; “Non-Toxic” in data set [5]; “Non-Toxic” in data set [9]; “Non-Toxic” in [13]; “Non-Toxic” in data set [15]; 97% in the data set on Saccharomyces cerevisiae [16]. In addition, the “inhibition (INH)” value in [4] and in [7] was “Not Active” in each case. Further, the inhibition result (in [6]; in the data set with Kluyveromyces lactis; in the data set with Prunus dulcis) was “inactive” throughout. Besides, the results for the inhibition (in data set [8]; with Saccharomyces cerevisiae [10]; in the data set on Saccharomyces cerevisiae [1]) were 2.31%, 79.9% and more than 50%, respectively. Further, the result in the data set on Mus musculus [11] and with Mus musculus [14] was Active. Further, the Ratio Ki with Saccharomyces cerevisiae [12] worked out at 7.
For `O=S(=O)(NCCc1cn(S(=O)(=O)c2ccc(F)cc2C(F)(F)F)cn1)c1ccc(F)cc1C(F)(F)F`, in the data set with Saccharomyces cerevisiae [1], the inhibition was more than 50%.
Turning to `OC[C@H]1NC[C@H](O)[C@@H](O)[C@H]1O`, in data set [17], the IC50 (usually the midpoint of a concentration-inhibition curve) amounted to 90 µM.
`Cc1ccc(F)c(S(=O)(=O)NCCc2cn(S(=O)(=O)c3cc(C)ccc3F)cn2)c1`: the “inhibition (INH)” value in data set [4] and in data set [7] was “Not Active” in each case. Moreover, the inhibition result (in data set [6]; with Kluyveromyces lactis; in the data set with Prunus dulcis) was “inactive” in each case. In addition, the inhibition in data set [8] is 7.14%; in the data set on Saccharomyces cerevisiae [10], 72.2%; in the data set on Saccharomyces cerevisiae [1], more than 50%.
For the compound `O=S(=O)(NCCc1cn(S(=O)(=O)c2c(F)c(F)c(F)c(F)c2F)cn1)c1c(F)c(F)c(F)c(F)c1F`, in the data set on Saccharomyces cerevisiae [1], the inhibition was more than 50%.
Compound `O=S(=O)(NCCc1c[nH]cn1)c1ccc(F)cc1C(F)(F)F` returned an inhibition with Saccharomyces cerevisiae [1] of less than 50%.
With `O=S(=O)(NCCc1c[nH]cn1)c1ccc(C(F)(F)F)cc1`, the inhibition with Saccharomyces cerevisiae [1] is less than 50%.
In the data set with Saccharomyces cerevisiae [1], `COc1ccc(S(=O)(=O)NCCc2c[nH]cn2)cc1F` displayed an inhibition of less than 50%.
For `O=S(=O)(NCCc1cn(S(=O)(=O)c2ccccc2)cn1)c1ccccc1`, the inhibition with Saccharomyces cerevisiae [1] is more than 50%.
Compound `O=S(=O)(NCCc1c[nH]cn1)c1ccccc1` showed an inhibition in the data set on Saccharomyces cerevisiae [1] of less than 50%.
In the data set with Saccharomyces cerevisiae [1], `O=S(=O)(NCCc1cn(S(=O)(=O)c2ccc(F)cc2)cn1)c1ccc(F)cc1` came in with an inhibition of more than 50%.
In the data set on Saccharomyces cerevisiae [1], `O=S(=O)(NCCc1cn(S(=O)(=O)c2ccc(F)cc2Cl)cn1)c1ccc(F)cc1Cl` showed an inhibition of more than 50%.
Consider `O=S(=O)(NCCc1c[nH]cn1)c1ccc(F)cc1`, for which, in the data set on Saccharomyces cerevisiae [1], the inhibition is less than 50%.
